Laboratory results as given in publication PMC5603230 (Journal of medicinal chemistry, 2017).

How the values were obtained:
HL-60 shCTRL = assay: Cell proliferation inhibition, HL-60 shCTRL in serine-replete or -deplete medium; type: cell-based, human; settings: ratio of IC50 in serine-replete to serine-deplete medium
SiHa = assay: Cell proliferation inhibition, SiHa in serine-replete or -deplete medium; type: cell-based, human; settings: ratio of IC50 in serine-replete to serine-deplete medium
PHGDH [1] = molecular target: T1, PHGDH (Homo sapiens, UniProt O43175); assay: Ki measurement / competition assay by titrating 3-PG or NAD+; type: biochemical
T1 sequence (O43175 1-533): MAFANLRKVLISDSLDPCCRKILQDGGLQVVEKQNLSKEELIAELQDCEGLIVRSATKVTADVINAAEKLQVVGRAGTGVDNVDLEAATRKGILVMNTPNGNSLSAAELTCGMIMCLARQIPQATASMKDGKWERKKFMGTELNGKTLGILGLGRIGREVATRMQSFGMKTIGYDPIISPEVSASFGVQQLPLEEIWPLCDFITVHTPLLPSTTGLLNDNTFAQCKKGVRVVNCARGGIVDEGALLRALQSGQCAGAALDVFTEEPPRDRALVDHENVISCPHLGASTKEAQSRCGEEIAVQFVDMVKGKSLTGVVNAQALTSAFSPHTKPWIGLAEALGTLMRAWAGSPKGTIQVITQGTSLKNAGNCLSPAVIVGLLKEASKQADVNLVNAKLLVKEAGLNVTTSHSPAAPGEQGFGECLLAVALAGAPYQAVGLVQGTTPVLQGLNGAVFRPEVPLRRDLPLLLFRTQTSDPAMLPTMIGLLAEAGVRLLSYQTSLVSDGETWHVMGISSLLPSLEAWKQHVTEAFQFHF

PHGDH [2] = molecular target: T1, PHGDH; assay: Rapid dilution; type: biochemical; settings: 160 μM, 45 min at 37 °C, diluted 10-fold
PHGDH [3] = molecular target: T1, PHGDH; settings: coupled-enzyme assay

| SMILES | HL-60 shCTRL IC50+Ser/IC50−Ser (HL-60 shCTRL) | SiHa IC50+Ser/IC50−Ser (SiHa) | mode of action with respect to both substrates (3-PG and NAD+) (PHGDH [1]) | recovery of enzymatic activity after dilution (PHGDH [2]) | PHGDH inhibition (IC50, μM) (PHGDH [3]) |
| --- | --- | --- | --- | --- | --- |
| O=C(Nc1ccccc1[N+](=O)[O-])c1ccc(Cl)cc1 [compound 12] | >1.2 | >1.7 | – | – | – |
| O=C(C(=S)N1CCOCC1)c1ccccc1 [compound 19, 1-Phenyl-2-morpholino-2-thioxoethanone] | >5.5 | – | noncompetitive | enzymatic activity is not recovered after dilution | – |
| O=C(C(=S)N1CCOCC1)c1ccccc1Cl [compound 23, 1-(2-Chlorophenyl)-2-morpholino-2-thioxoethanone] | – | – | – | – | no inhibition |
| O=C(C(=S)N1CCOCC1)c1cccc(Cl)c1 [compound 24, 1-(3-Chlorophenyl)-2-morpholino-2-thioxoethanone] | – | – | – | – | no inhibition |
